Data as given in patent US20260034112A1, “MULTI-CYCLIC IRAK1 AND IRAK4 INHIBITING COMPOUNDS AND USES THEREOF” (CHILDREN'S HOSPITAL MEDICAL CENTER, priority 2022, published 2026).

Tested on: THP1 cells
Assay type: cell-based, human

## Cc1cc(-c2nc(C(=O)Nc3cc4oc(N5CCOCC5)nc4nc3N3CC[C@@H](O)C3)co2)ccn1 [CA-4948, emavusertib]
  Log(FC) of gene KCNH2: −0.6125
CA-4948 vs DMSO in THP1 cells
  Log(FC) of gene ABCC2: 0.6855
  Log(FC) of gene AC016629.8: 0.586
  Log(FC) of gene AC093391.2: 0.7835
  Log(FC) of gene ADAM8: 0.6886
  Log(FC) of gene ADAM19: 0.5984
  Log(FC) of gene ADCY4: 1.023
  Log(FC) of gene AMH: 0.7789
  Log(FC) of gene ANKFN1: 0.6129
  Log(FC) of gene ANKRD34A: 0.9288
  Log(FC) of gene AP3B2: 0.7192
  Log(FC) of gene AP000330.8: 0.7147
  Log(FC) of gene APOE: 0.6335
  Log(FC) of gene APOLD1: 0.7365
  Log(FC) of gene ARID3C: 0.8751
  Log(FC) of gene ARL17B: 0.6318
  Log(FC) of gene ARTN: 0.6881
  Log(FC) of gene ASIC3: 1.28
  Log(FC) of gene ATP2B3: 0.7931
  Log(FC) of gene AURKB: 0.6324
  Log(FC) of gene BRICD5: 0.6636
  Log(FC) of gene BTBD19: 0.6939
  Log(FC) of gene BVES-AS1: 0.5945
  Log(FC) of gene BZRAP1: 1.334
  Log(FC) of gene C1orf51: 1.033
  Log(FC) of gene C2orf48: 0.606
  Log(FC) of gene C5orf56: 0.7488
  Log(FC) of gene C9orf37: 0.6108
  Log(FC) of gene C15orf62: 0.8673
  Log(FC) of gene C16orf86: 0.6351
  Log(FC) of gene CACTIN-AS1: 0.7321
  Log(FC) of gene CATSPER3: 0.6152
  Log(FC) of gene CCDC103: −0.6115
  Log(FC) of gene CCDC109B: 0.8991
  Log(FC) of gene CCDC154: 0.7952
  Log(FC) of gene CCDC155: 0.6645
  Log(FC) of gene CCDC183: 0.9658
  Log(FC) of gene CD101: 0.5897
  Log(FC) of gene CD163: −0.5952
  Log(FC) of gene CD302: 0.6021
  Log(FC) of gene CDC42EP2: 0.6518
  Log(FC) of gene CEACAM19: 1.259
  Log(FC) of gene CGN: 0.9021
  Log(FC) of gene CHN2: 0.8531
  Log(FC) of gene CHRFAM7A: −0.9429
  Log(FC) of gene CILP2: 0.8989
  Log(FC) of gene CLDN15: 0.6387
  Log(FC) of gene CLEC10A: 0.6157
  Log(FC) of gene CLEC12B: 0.7555
  Log(FC) of gene CLK1: 1.08
  Log(FC) of gene CLK3: 0.9323
  Log(FC) of gene CLK4: 0.8127
  Log(FC) of gene CMTM1: 1.158
  Log(FC) of gene CNIH2: 0.9526
  Log(FC) of gene CNKSR1: 0.9226
  Log(FC) of gene COL7A1: 1.605
  Log(FC) of gene CPNE5: 0.7008
  Log(FC) of gene CPT1B: 1.318
  Log(FC) of gene CRABP2: 3.095
  Log(FC) of gene CTRL: 1.027
  Log(FC) of gene DCAF4L1: 1.097
  Log(FC) of gene DCAKD: 0.6901
  Log(FC) of gene DCST2: 1.278
  Log(FC) of gene DDB2: 0.5883
  Log(FC) of gene DEGS2: 0.6503
  Log(FC) of gene DMPK: 0.6345
  Log(FC) of gene DNAH1: 0.6015
  Log(FC) of gene DNAJC27-AS1: 0.6304
  Log(FC) of gene DNASE1L2: 1.008
  Log(FC) of gene DND1: 1.389
  Log(FC) of gene DNHD1: 1.083
  Log(FC) of gene DRP2: 0.9019
  Log(FC) of gene EFCAB12: 1.697
  Log(FC) of gene EGFR: 0.882
  Log(FC) of gene EIF3CL: 0.7466
  Log(FC) of gene ELMO3: 0.7963
  Log(FC) of gene ENHO: 0.7452
